According to ChEMBL document CHEMBL4715689, “Novel PTP1B inhibitors identified by DNA display of fragment pairs” (Bioorg Med Chem Lett, 2016):
The source made the active and inactive calls. No cut-off for these calls is given here.

How the values were obtained:
[1] = molecular target: T1, Tyrosine-protein phosphatase non-receptor type 2 (Homo sapiens, UniProt P17706); assay: Inhibition of recombinant human TCPTP (1 to 317 residues) expressed in Escherichia coli using DifMup as substrate preincubated for 30 mins followed by substrate addition and measured immediately
T1 sequence (P17706 whole entry): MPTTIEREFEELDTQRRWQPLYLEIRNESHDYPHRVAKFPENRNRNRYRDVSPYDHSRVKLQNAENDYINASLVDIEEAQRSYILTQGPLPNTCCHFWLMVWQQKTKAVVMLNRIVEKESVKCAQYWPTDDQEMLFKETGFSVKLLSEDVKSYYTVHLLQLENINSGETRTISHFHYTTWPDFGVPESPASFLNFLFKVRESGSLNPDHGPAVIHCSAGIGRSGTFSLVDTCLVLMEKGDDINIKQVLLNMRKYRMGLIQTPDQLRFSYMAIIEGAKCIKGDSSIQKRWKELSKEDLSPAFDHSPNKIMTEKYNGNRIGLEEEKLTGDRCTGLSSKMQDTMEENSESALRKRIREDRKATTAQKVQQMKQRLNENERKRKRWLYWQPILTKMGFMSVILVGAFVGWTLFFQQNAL

[2] = molecular target: T2, Tyrosine-protein phosphatase non-receptor type 1 (Homo sapiens, UniProt P18031)
T2 sequence (P18031 whole entry): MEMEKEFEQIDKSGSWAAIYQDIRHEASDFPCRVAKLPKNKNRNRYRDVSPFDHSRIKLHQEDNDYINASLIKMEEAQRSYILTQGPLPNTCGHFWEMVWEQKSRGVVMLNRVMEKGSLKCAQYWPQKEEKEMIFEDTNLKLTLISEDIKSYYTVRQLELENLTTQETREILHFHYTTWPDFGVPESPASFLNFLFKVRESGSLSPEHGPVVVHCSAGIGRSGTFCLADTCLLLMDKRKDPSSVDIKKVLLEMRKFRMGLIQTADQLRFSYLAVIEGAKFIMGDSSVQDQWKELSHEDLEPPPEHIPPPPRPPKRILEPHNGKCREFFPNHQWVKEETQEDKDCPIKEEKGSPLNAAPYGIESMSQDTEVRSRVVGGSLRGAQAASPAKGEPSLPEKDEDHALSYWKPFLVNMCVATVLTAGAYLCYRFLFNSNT
Description: Inhibition of N-terminal GST-tagged recombinant human PTP1B (1 to 321 residues) expressed in Escherichia coli using DifMup as substrate preincubated for 30 mins followed by substrate addition and measured immediately

[3] = molecular target: T2, Tyrosine-protein phosphatase non-receptor type 1; remark: listed apart in the source
Description: Binding affinity to N-terminal GST-tagged recombinant human PTP1B (1 to 321 residues) expressed in Escherichia coli assessed as dissociation constant and measured for 120 sec by biolayer interferometry

BT-474 = assay: Growth inhibition of human BT474 cells assessed as reduction in cell viability after 48 hrs by MTT assay; format: functional

Ki [1] [nM]	Ki [2] [nM]	Kd [3] [nM]	GI50 (BT-474) [nM]	SMILES	Activity (BT-474)
800	3400	240	–	CCC(C)C(NC1=NS(=O)(=O)c2ccccc21)C(=O)NC[C@@H](NC(=O)C1CCCC(NC(=O)C(C2CC2)n2cc(CC3CCCCC3)nn2)C1)C(N)=O (some centres undefined)	–
7600	2200	210	–	CCCCC(NC1=NS(=O)(=O)c2ccccc21)C(=O)NC[C@@H](NC(=O)C1(NC(=O)[C@H](CC(C)(C)C)n2cc(CC3CCCCC3)nn2)CC1)C(N)=O (some centres undefined)	–
12200	3100	90	–	CCCCC(NC1=NS(=O)(=O)c2ccccc21)C(=O)NC[C@@H](NC(=O)C1CCCC(NC(=O)[C@H](CC(C)(C)C)n2cc(CC3CCCCC3)nn2)C1)C(=O)NC(CCCCNC(=O)CCCC[C@@H]1SCC2NC(=O)NC21)C(N)=O (some centres undefined)	–
2700	16800	120	–	CCCCC(NC1=NS(=O)(=O)c2ccccc21)C(=O)NCC(NC(=O)CC1(NC(=O)C(C2CC2)n2cc(CC3CCCCC3)nn2)CCCCC1)C(=O)NC(CCCCNC(=O)CCCC[C@@H]1SCC2NC(=O)NC21)C(N)=O (some centres undefined)	–
> 20000	–	–	–	CC(C)C(NC1=NS(=O)(=O)c2ccccc21)C(=O)NCC(NC(=O)c1n[nH]c2ccc([N+](=O)[O-])cc12)C(N)=O (centres undefined)	inactive
3010	6800	110	–	NC(=O)C(CCCCNC(=O)CCCC[C@@H]1SCC2NC(=O)NC21)NC(=O)C(CNC(=O)CCCCCNC1=NS(=O)(=O)c2ccccc21)NC(=O)Cc1ccc(CNC(=O)[C@H](C2CC2)n2cc(CC3CCCCC3)nn2)cc1 (some centres undefined)	–
7600	2200	210	–	CCCCC(NC1=NS(=O)(=O)c2ccccc21)C(=O)NC[C@@H](NC(=O)C1(NC(=O)[C@H](CC(C)(C)C)n2cc(CC3CCCCC3)nn2)CC1)C(=O)NC(CCCCNC(=O)CCCC[C@@H]1SCC2NC(=O)NC21)C(N)=O (some centres undefined)	–
7010	2900	220	–	CCCCC(NC1=NS(=O)(=O)c2ccccc21)C(=O)NCC(NC(=O)COCCOCCNC(=O)C(C1CC1)n1cc(-c2cccc(OC)c2)nn1)C(=O)NC(CCCCNC(=O)CCCC[C@@H]1SCC2NC(=O)NC21)C(N)=O (some centres undefined)	–
> 100000	1700	290	900	CCC(C)C(NC1=NS(=O)(=O)c2ccccc21)C(=O)NC[C@@H](NC(=O)CC1(NC(=O)[C@H](CC(C)(C)C)n2cc(CC3CCCCC3)nn2)CCCCC1)C(N)=O (some centres undefined)	–
> 20000	250	50	–	CC(C)C(NC1=NS(=O)(=O)c2ccccc21)C(=O)NCC(NC(=O)c1n[nH]c2ccc([N+](=O)[O-])cc12)C(=O)NC(CCCCNC(=O)CCCC[C@@H]1SCC2NC(=O)NC21)C(N)=O (some centres undefined)	inactive

The remaining lines, values behind:

SMILES	Ki [1] [nM]	Ki [2] [nM]	Kd [3] [nM]	GI50 (BT-474) [nM]	Activity (BT-474)
CC(C)C(NC1=NS(=O)(=O)c2ccccc21)C(=O)NC[C@@H](NC(=O)CC1(NC(=O)[C@H](CC(C)(C)C)n2cc(CC3CCCCC3)nn2)CCCCC1)C(N)=O (some centres undefined)	6200	3500	100	–	–
CCCCC(NC1=NS(=O)(=O)c2ccccc21)C(=O)NCC(NC(=O)c1ccccc1NC(=O)c1n[nH]c2ccc([N+](=O)[O-])cc12)C(=O)NC(CCCCNC(=O)CCCC[C@@H]1SCC2NC(=O)NC21)C(N)=O (some centres undefined)	> 100000	1200	270	–	inactive
CCC(C)C(NC1=NS(=O)(=O)c2ccccc21)C(=O)NC[C@@H](NC(=O)C1CCCC(NC(=O)C(C2CC2)n2cc(CC3CCCCC3)nn2)C1)C(=O)NC(CCCCNC(=O)CCCC[C@@H]1SCC2NC(=O)NC21)C(N)=O (some centres undefined)	800	3400	240	–	–
CC(C)C(NC1=NS(=O)(=O)c2ccccc21)C(=O)NC[C@@H](NC(=O)CC1(NC(=O)[C@H](CC(C)(C)C)n2cc(CC3CCCCC3)nn2)CCCCC1)C(=O)NC(CCCCNC(=O)CCCC[C@@H]1SCC2NC(=O)NC21)C(N)=O (some centres undefined)	6200	3500	100	–	–
CCCCC(NC1=NS(=O)(=O)c2ccccc21)C(=O)NCC(NC(=O)CC1(NC(=O)C(C2CC2)n2cc(CC3CCCCC3)nn2)CCCCC1)C(N)=O (centres undefined)	2700	16800	120	–	–
CCCCC(NC1=NS(=O)(=O)c2ccccc21)C(=O)NCC(NC(=O)COCCOCCNC(=O)C(C1CC1)n1cc(-c2cccc(OC)c2)nn1)C(N)=O (centres undefined)	7010	2900	220	–	–
CCC(C)C(NC1=NS(=O)(=O)c2ccccc21)C(=O)NC[C@@H](NC(=O)CC1(NC(=O)[C@H](CC(C)(C)C)n2cc(CC3CCCCC3)nn2)CCCCC1)C(=O)NC(CCCCNC(=O)CCCC[C@@H]1SCC2NC(=O)NC21)C(N)=O (some centres undefined)	> 100000	1700	290	900	–
CCCCC(NC1=NS(=O)(=O)c2ccccc21)C(=O)NCC(NC(=O)c1ccccc1NC(=O)c1n[nH]c2ccc([N+](=O)[O-])cc12)C(N)=O (centres undefined)	> 100000	1200	270	–	inactive
NC(=O)C(CNC(=O)CCCCCNC1=NS(=O)(=O)c2ccccc21)NC(=O)Cc1ccc(CNC(=O)[C@H](C2CC2)n2cc(CC3CCCCC3)nn2)cc1 (some centres undefined)	3010	6800	110	–	–
CCCCC(NC1=NS(=O)(=O)c2ccccc21)C(=O)NC[C@@H](NC(=O)C1CCCC(NC(=O)[C@H](CC(C)(C)C)n2cc(CC3CCCCC3)nn2)C1)C(N)=O (some centres undefined)	12200	3100	90	–	–
